The values that follow come from ChEMBL document CHEMBL1130426, “Probing the mechanism of action and decomposition of amino acid phosphomonoester amidates of antiviral nucleoside prodrugs” (J Med Chem, 1997).

Each structure is given as a SMILES string.

The test system of one experiment is CCRF-CEM. The experiment can be described thus: Cytotoxic concentration required to inhibit 50% […] in CEM cells. It counts as functional. As to conditions: Homo sapiens.
Experiment [1] in a line: Effective concentration required to inhibit 50% of HIV-1 in peripheral blood mononuclear cells (PBMC). It counts as functional, Homo sapiens.
A short description of experiment [2]: Cytotoxic concentration required to inhibit 50% […] in peripheral blood mononuclear cells (PBMC). It counts as functional. Particulars: Homo sapiens.

In general, CC50 refers to the concentration that lowers cell viability or growth by half. Read a high CC50 as lower toxicity to the cells. A word on the EC50: it is the concentration at which the effect is half-maximal. Read a low EC50 as higher potency in that assay.

In the case of `COC(=O)[C@H](Cc1c[nH]c2ccccc12)NP(=O)(OCCC#N)OCC1OC(n2cc(C)c(=O)[nH]c2=O)CC1N=[N+]=[N-]` (stereo not given in full), the CC50 (in the experiment with CCRF-CEM; in experiment [2]) was more than 100 µM in each case. In experiment [1], this compound showed an EC50 of 0.4 µM.
On to `COC(=O)[C@H](Cc1c[nH]c2ccccc12)NP(=O)(OC)OCC1OC(n2cc(C)c(=O)[nH]c2=O)CC1N=[N+]=[N-]` (stereo not given in full), for which the CC50 (in the experiment with CCRF-CEM; in experiment [2]) was more than 50 µM each time. Also, the EC50 in experiment [1] turned out to be 0.3 µM.
Consider `Cc1cn([C@H]2C[C@H](N=[N+]=[N-])[C@@H](CO)O2)c(=O)[nH]c1=O` [ZIDOVUDINE], for which the values for the CC50 (in the experiment with CCRF-CEM; in experiment [2]) were 14.3 µM and more than 100 µM, respectively. Moreover, the EC50 in experiment [1] was 0.08 µM.
`COC(=O)[C@H](Cc1c[nH]c2ccccc12)NP(=O)(OCCC#N)OCC1OC(n2cc(C)c(=O)[nH]c2=O)CC1F` (stereo not given in full): the 50% cytotoxic concentration (CC50) with CCRF-CEM was more than 95.6 µM; in experiment [2], more than 100 µM. In experiment [1], this compound came in with an EC50 of 0.2 µM.
For the compound `COC(=O)[C@H](Cc1ccccc1)NP(=O)(OC)OCC1OC(n2cc(C)c(=O)[nH]c2=O)CC1F` (stereo not given in full), the CC50 (in the experiment on CCRF-CEM; in experiment [2]) was more than 100 µM each time. In experiment [1], this compound came in with an EC50 of more than 0.21 µM.
For `COC(=O)[C@H](Cc1c[nH]c2ccccc12)NP(=O)(O)OCC1OC(n2cc(C)c(=O)[nH]c2=O)CC1F` (stereo not given in full), the CC50 was 35.1 µM with CCRF-CEM and more than 100 µM in experiment [2]. For the same compound, in experiment [1], a half-maximal effect (EC50) was put at 0.9 µM.
`Cc1cn([C@H]2C[C@H](F)[C@@H](CO)O2)c(=O)[nH]c1=O` [ALOVUDINE] had an EC50 in experiment [1] of 0.001 µM. Also, the midpoint of cytotoxicity in experiment [2], the CC50, lay at 8.6 µM.
Regarding `COC(=O)[C@H](Cc1c[nH]c2ccccc12)NP(=O)(O)OC[C@H]1O[C@@H](n2cc(C)c(=O)[nH]c2=O)C[C@@H]1N=[N+]=[N-]`, the CC50 (in the experiment with CCRF-CEM; in experiment [2]) was more than 100 µM throughout. In experiment [1], this compound registered an EC50 of 0.01 µM.
Take `COC(=O)[C@H](Cc1ccccc1)NP(=O)(OCCC#N)OCC1OC(n2cc(C)c(=O)[nH]c2=O)CC1N=[N+]=[N-]` (stereo not given in full): the CC50 (in the experiment with CCRF-CEM; in experiment [2]) was more than 100 µM in each case. Further, the EC50 in experiment [1] was more than 1 µM.
`COC(=O)[C@H](Cc1c[nH]c2ccccc12)NP(=O)(OC)OCC1OC(n2cc(C)c(=O)[nH]c2=O)CC1F` (stereo not given in full): the CC50 (in the experiment with CCRF-CEM; in experiment [2]) was more than 100 µM in each case. For the same compound, in experiment [1], a half-maximal effect (EC50) was put at 0.29 µM.
As to `COC(=O)[C@H](Cc1ccccc1)NP(=O)(OC)OCC1OC(n2cc(C)c(=O)[nH]c2=O)CC1N=[N+]=[N-]` (stereo not given in full), the values for the CC50 (with CCRF-CEM; in experiment [2]) were more than 50 µM and more than 100 µM, respectively. The same compound came in with an EC50 in experiment [1] of 0.09 µM.
`COC(=O)[C@H](Cc1ccccc1)NP(=O)(O)OCC1OC(n2cc(C)c(=O)[nH]c2=O)CC1N=[N+]=[N-]` (stereo not given in full): the CC50 (with CCRF-CEM; in experiment [2]) was more than 100 µM each time. The compound further had an EC50 in experiment [1] of 0.6 µM.
